# Test results as given in patent US20100159093A1, “METHOD OF TREATING FOODSTUFF” (priority 2008, published 2010).
# Key:
# [1] = tested on: anaerobically cultivated phospholipase-producing bacteria; experiment: Number of anaerobically cultivated phospholipase-producing bacteria in raw milk under nitrogen gas; type: cell-based; conditions: 12.0° C., FIG. 5K
# Procedure: With the device shown in FIG. 1, the effect of nitrogen gas on the natural microflora in raw milk (volume approximately 125 ml) was examined by replacing the air (control) in an open vessel (volume approximately 250 ml) at a constant temperature, with a flow-through of 100% nitrogen gas (purity 99.999%, manufacturer AGA) at two different flow-through rates: N1=120 ml/min, N2=40 ml/min. The temperature of the raw milk in the sample bottles was adjusted by means of the thermostat (14) of the water bath to bring the temperature of the milk to 6.0° C., 7.0° C. or 12.0° C. The temperature variation in the vessel was less than ±0.1° C. The effect of nitrogen gas on the growth of the microflora in a raw milk sample at 12.0° C. Two flow-through rates of the nitrogen gas were used in the study: (▴) 40 ml/min and ([…]) 120 ml/min. […] The following bacterial levels were determined in the samples: FIG. 5A: Total bacteria count (p.m.y./ml) FIG. 5B: Total number of psychrotrophs (p.m.y./ml) FIG. 5C: Total number of proteolytic bacteria (p.m.y./ml) FIG. 5D: Total number of lipolytic bacteria (p.m.y./ml) FIG. 5E: Total number of bacteria producing phospholipase (p.m.y./ml). […]
# [2] = tested on: natural microflora in raw milk (total bacteria count); experiment: Growth of the natural microflora (total bacteria count) in raw milk under nitrogen gas; type: cell-based
# Procedure: With the device shown in FIG. 1, the effect of nitrogen gas on the natural microflora in raw milk (volume approximately 125 ml) was examined by replacing the air (control) in an open vessel (volume approximately 250 ml) at a constant temperature, with a flow-through of 100% nitrogen gas (purity 99.999%, manufacturer AGA) at two different flow-through rates: N1=120 ml/min, N2=40 ml/min. The apparatus comprises a nitrogen source (1), which is connected by means of a flow channel (2) to two sample bottles (3 and 4). The device also comprises a bottle (5) which contains a reference sample. Filters (6a, 6b, 7a, 7b and 8a, 8b) are connected to the gas flow channels (2), which are made of silicon pipe/hose. The pore size of the filters is 0.2 μm. A flow meter is attached to the flow channels (2), in order to allow the rate at which the gas flows are to be adjusted. The sample bottles are placed in a water bath (10). […] and magnetic mixers (12) are used to mix the contents of the bottles. The water of the water bath (10) is cooled with a cooling coil (11) which is connected to a cooling unit (13), and the entire test apparatus is placed in a cold store, the temperature of which is 5° C. (except the nitrogen bottle). The water temperature of the water bath (10) is adjusted to a desired temperature with the help of an adjustable submersible thermostat (14). The temperature of the raw milk in the sample bottles was adjusted by means of the thermostat (14) of the water bath to bring the temperature of the milk to 6.0° C., 7.0° C. or 12.0° C. The temperature variation in the vessel was less than ±0.1° C. […] The effect of nitrogen gas on the growth of the microflora in a raw milk sample at 6.0° C. Two flow-through rates of the nitrogen gas were used in the study: (▴) 40 ml/min and ([…])120 ml/min. […] The following bacterial levels were determined in the samples: The effect of nitrogen gas on the growth of the microflora in a raw milk sample at 7.0° C. Two flow-through rates of the nitrogen gas were used in the study: (▴) 40 ml/min and ([…])120 ml/min. […] The following bacterial levels were determined in the samples: The effect of nitrogen gas on the growth of the microflora in a raw milk sample at 12.0° C. Two flow-through rates of the nitrogen gas were used in the study: (▴) 40 ml/min and ([…]) 120 ml/min. […] The following bacterial levels were determined in the samples: […]
# [3] = 6.0° C., N2 environment (40 ml/min)
structure (smiles),measurement,setting,value
N#N [nitrogen gas],growth of the anaerobic bacteria which secrete phospholipase,[1]; N1 environment (120 ml/min),total prevention of growth
same,growth of the anaerobic bacteria which secrete phospholipase,[1]; N2 environment (40 ml/min),total prevention of growth
same,growth of the bacteria,"[2]; 6.0° C., N1 environment (120 ml/min), measurement period of 11 days",totally prevents the growth of the bacteria
same,growth of the microbes,[2]; [3],capable of preventing the growth of the microbes for 7 days
same,increase of the microbe level during a period of 3 days,[2]; [3],less than 1 log-unit
same,total growth/the growth of the microbes,"[2]; 7.0° C., N1 environment (120 ml/min), prevents = log increases by less than one unit in 3 days",still prevents
same,growth of the total microbial count,"[2]; 7.0° C., N2 environment (40 ml/min)","delays the growth of the total microbial count, although it cannot totally prevent the growth"
same,growth of the total microbial count,"[2]; 12.0° C., N1 environment (120 ml/min), Example 4 sample",still prevents or nearly prevents the growth of the total microbial count
same,growth of the total number of the microbes,"[2]; 12.0° C., N1 environment (120 ml/min), Example 5 sample",substantially delay the growth of the total number of the microbes
